Experimental data: PubChem BioAssay (NCI)
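Dose response: 5 concentrations. Exposure: 48 h. Format: 96-well plates. Endpoint: linear interpolation; highest concentration if not reached. Here, GI50 denotes the concentration required for 50% inhibition of growth. The concentration for full growth arrest is given as TGI.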

How the values were obtained:
Assay in all cases: DTP human tumour cell line panel, 48 h
A498 renal = tested on: A498 renal
ACHN renal = tested on: ACHN renal
BT-549 breast = tested on: BT-549 breast
HCT-116 colon = tested on: HCT-116 colon
HL-60(TB) leukemia = tested on: HL-60(TB) leukemia
MDA-MB-435 = tested on: MDA-MB-435
OVCAR-8 ovarian = tested on: OVCAR-8 ovarian
SK-MEL-5 melanoma = tested on: SK-MEL-5 melanoma
TK-10 renal = tested on: TK-10 renal
OVCAR-4 ovarian = tested on: OVCAR-4 ovarian

Row | Compound | TGI (A498 renal) [µM] | TGI (ACHN renal) [µM] | TGI (BT-549 breast) [µM] | TGI (HCT-116 colon) [µM] | TGI (HL-60(TB) leukemia) [µM] | TGI (MDA-MB-435) [µM] | TGI (OVCAR-8 ovarian) [µM] | TGI (SK-MEL-5 melanoma) [µM] | TGI (TK-10 renal) [µM] | TGI (OVCAR-4 ovarian) [µM] | GI50 (A498 renal) [µM] | GI50 (ACHN renal) [µM] | GI50 (HL-60(TB) leukemia) [µM] | GI50 (MDA-MB-435) [µM] | GI50 (SK-MEL-5 melanoma) [µM] | GI50 (OVCAR-4 ovarian) [µM]
1 | CC(=O)Oc1ccc(N2C(=O)C3c4[nH]c5ccccc5c4C4CCC(C(C)(C)C)CC4C3C2=O)cc1 (stereo not given) | 14.7 | 12.2 | 14.9 | 4.93 | 5.47 | 22.6 | 13.5 | 8.19 | 10.7 |  |  |  |  |  |  | 
2 | CC(O)c1c2c(cc3c1CC1(C3)Cc3cc4c(c(C(C)O)c3C1)CCC4)CCC2 (stereo not given) | 29 | 31.4 |  | 24.8 | 21.2 | 31.9 | > 100 | 25.6 | 69.7 | 17.5 |  |  |  |  |  | 
3 | Cc1cc(C)c(S(=O)(=O)N[C@@H](/C=C(\Br)CO)C(C)C)c(C)c1 | 68 | > 100 | 85.2 | > 100 | 40.3 | 34.1 | > 100 | 30.5 | > 100 |  |  |  |  |  |  | 
4 | COC(=O)c1ccc2c(c1)CC1(C2)Cc2cc3c(c(C(=O)OC)c2C1)CCCC3 (stereo not given) | > 100 | > 100 |  | > 100 | > 100 | > 100 | > 100 | 42 | > 100 | > 100 |  |  |  |  |  | 
5 | CSc1c(C(=O)Nc2ccc(C)cc2)c(N)nn1-c1ccccc1 | 75.1 | > 100 | > 100 | > 100 | > 100 | > 100 |  | > 100 | > 100 | > 100 |  |  |  |  |  | 
6 | CSCCC(NCc1c(O)ccc2ccc(=O)oc12)C(=O)O (stereo not given) |  | > 100 |  | > 100 | > 100 | > 100 | > 100 | > 100 | > 100 | > 100 |  |  |  |  |  | 
7 | CSC(SC)=C1C(=O)NN=C1C |  | > 100 | > 100 | > 100 | > 100 | > 100 |  | > 100 | > 100 | > 100 |  |  |  |  |  | 
8 | Cc1ccc(/C=C2\N=C(N3CCCCC3)NC2=O)cc1 |  | > 100 | > 100 | > 100 | > 100 | > 100 | > 100 |  | > 100 | > 100 |  |  |  |  |  | 
9 | Cc1ccc(/C=C2\CN(C)CC3C(c4ccc(C)cc4)=C(C#N)C(=O)NC23)cc1 (stereo not given) | > 50 | > 50 | > 50 | > 50 |  | > 50 | > 50 | > 50 | > 50 | > 50 |  |  |  |  |  | 
10 | O=C1C=C(N2CCCC2)C=C(N2CCCC2)C1 |  | > 100 |  | > 100 | > 100 |  | > 100 | > 100 | > 100 |  |  |  |  |  |  | 
11 | CC(=O)Nc1ccc(Nc2cc(=O)n(C)c(=O)[nH]2)cc1 | > 100 | > 100 | > 100 | > 100 |  | > 100 | > 100 | > 100 | > 100 | > 100 |  |  |  |  |  | 
12 | CC1=C2C(=O)O[C@@H](c3ccoc3)[C@]2(C)CCC1=O | > 100 | > 100 | > 100 | > 100 |  | > 100 | > 100 | > 100 |  |  |  |  |  |  |  | 
13 | Cc1nc(-c2ccccc2)c(C)n2c1nc1ccccc12 | > 100 |  | 65.5 | > 100 | 44.4 | 59.5 | 70.1 |  | 84 | > 100 |  |  |  |  |  | 
14 | O=C(O)c1cccc(S(=O)(=O)NN2C(=O)CSC2c2ccccc2)c1 (stereo not given) | > 100 | > 100 | > 100 | > 100 | > 100 | > 100 | > 100 | > 100 | > 100 |  |  |  |  |  |  | 
15 | ClC(Cl)(Cl)C1CCOC1n1nc2ccccc2n1 (stereo not given) | > 100 |  | > 100 | > 100 | > 100 | > 100 | > 100 | > 100 | > 100 | > 100 |  |  |  |  |  | 
16 | CCOc1cc(/C=N\N(C)C)cc(/C=N\N(C)C)c1O | > 100 | 56 |  | > 100 | > 100 | > 100 | 56.2 | 73.2 | > 100 | > 100 |  |  |  |  |  | 
17 | CCOC(=O)C1(Cc2ccccc2)Cc2cc3c(cc2C1)CCC3 | > 100 | > 100 | 95.3 | > 100 | 76.9 | > 100 | > 100 |  | > 100 | 98.4 |  |  |  |  |  | 
18 | Oc1c(C2=NNC(c3cccs3)C2)ccc2ccccc12 (stereo not given) | 56.5 | > 100 | > 100 | 30.6 |  | 40 | 94.2 | 56.4 | > 100 | > 100 |  |  |  |  |  | 
19 | CCOC(=O)N1CCN(Cc2cc(=O)n3cc(C)ccc3n2)CC1 |  | > 100 | > 100 | > 100 | > 100 | > 100 | > 100 |  | > 100 | > 100 |  |  |  |  |  | 
20 | O=C(O)CCC(NC(=O)c1ccc(Nc2nc3ccccc3nc2C(=O)O)cc1)C(=O)O (stereo not given) |  | > 100 | > 100 | > 100 | > 100 | > 100 | > 100 | > 100 | > 100 | > 100 |  |  |  |  |  | 
21 | CCOc1ccc(N2C(=O)C3c4[nH]c5ccccc5c4C4CCC(C(C)(C)C)CC4C3C2=O)cc1 (stereo not given) | > 100 | > 100 |  | > 100 | > 100 |  | > 100 | > 100 |  | > 100 |  |  |  |  |  | 
22 | COc1cc(C2CC(c3cccc(Nc4ccncc4)c3)=NN2c2cc(Cl)cc(Cl)c2)cc(OC)c1OC (stereo not given) | 4.22 | 3.03 |  |  | 3.65 | 3.15 |  | 3.24 |  |  | 1.27 | 1.66 | 1.53 | 1.61 | 1.8 | 
23 | COc1cc2cc(Oc3ccc(NC(=O)Nc4ccc(F)c(C(F)(F)F)c4)cc3)c(C)nc2cc1OCCN1CCCCC1 |  | 3.01 |  |  | 3.81 | 3.14 |  | 3.09 |  | 3.13 |  | 1.65 | 1.91 | 1.74 | 1.7 | 1.6
24 | Cc1ccc(S(=O)(=O)NC(=O)NC(CO)C(=O)O)cc1 (stereo not given) |  | > 100 | > 100 | > 100 | > 100 |  | > 100 | > 100 | > 100 | > 100 |  |  |  |  |  | 
